Test results from patent US20080119515A1, “Heterocyclic Kinase Inhibitors: Methods of Use and Synthesis” (priority 2003, published 2008).

Molecular target: T1, ZAP-70 (Homo sapiens, UniProt P43403)
T1 sequence (P43403 1-619): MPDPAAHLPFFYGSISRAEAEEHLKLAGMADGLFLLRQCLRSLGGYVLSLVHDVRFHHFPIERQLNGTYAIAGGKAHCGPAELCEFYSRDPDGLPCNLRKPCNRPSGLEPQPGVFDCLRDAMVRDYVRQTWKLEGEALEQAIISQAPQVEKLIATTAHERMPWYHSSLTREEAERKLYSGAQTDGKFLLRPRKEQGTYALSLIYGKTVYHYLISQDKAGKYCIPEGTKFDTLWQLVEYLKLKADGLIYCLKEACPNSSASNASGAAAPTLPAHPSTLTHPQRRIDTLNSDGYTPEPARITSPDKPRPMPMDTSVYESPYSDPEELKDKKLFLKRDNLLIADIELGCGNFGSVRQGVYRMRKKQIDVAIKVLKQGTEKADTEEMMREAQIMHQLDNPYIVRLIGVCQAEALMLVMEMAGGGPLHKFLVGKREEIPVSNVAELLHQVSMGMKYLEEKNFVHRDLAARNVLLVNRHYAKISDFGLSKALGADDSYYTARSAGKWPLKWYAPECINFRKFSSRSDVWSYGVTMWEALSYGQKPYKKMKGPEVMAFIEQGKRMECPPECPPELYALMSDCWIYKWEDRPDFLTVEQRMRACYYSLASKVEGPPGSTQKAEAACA
Assay: DELFIA assay (ZAP-70 kinase, phosphorylation of biotinylated poly(glu,tyr))
Format: biochemical
Details: ZAP-70 DELFIA, class symbols; read-out: Activity (IC50 in vitro)
Experimental: Before initiation of kinase reactions, compounds were pre-incubated with ZAP-70. Pre-incubation reactions contained 62.5 mM Mops pH 7.0, 12.5 mM MgCl2, 12.5% glycerol, 3.1 nM ZAP-70, 62.5 nM biotinylated poly(glu,Tyr), 0.1 mg/ml BSA, 6.25% DMSO and […] compound in a total volume of […]. After a 10 minute room temperature incubation, 10 ml of 5 mM ATP was added to start the reaction. Reactions were incubated at room temperature for 30 minutes then terminated by addition of 5 ml 500 mM EDTA. The amount of phosphate transferred to biotinylated poly(glu,tyr) was measured using the Dissociation Enhanced Lanthanide Fluorescence Immuno-assay (DELFIA) from Perkin Elmer according to manufacturers protocol. Briefly, biotinylated […] was captured on streptavidin coated plates, washed twice, then incubated with Europium labeled-anti-phosphotyrosine antibody. Free antibody was removed with six washes, Europium was dissociated from the antibody, and Europium fluorescence was measured at using an excitation wavelength of 340 nm and an emission wavelength of 615 nm.

Structure (SMILES) | IC50
O=C(c1cc(Cl)nc2ccccc12)N1CCC[C@H]1CN1CCCC1 [Compound 3] | > 10 µM
COc1cc(C(=O)N2CCC[C@H]2CN2CCCC2)cc(-c2ccc3c(c2)OCO3)n1 [Compound 6] | > 10 µM
COc1cc(C(=O)N2CCC[C@H]2CN2CCCC2)cc(NCc2ccccc2)n1 [Compound 7] | > 10 µM
O=C(c1cc(Nc2ccc3c(c2)OCO3)nc2ccccc12)N1CCC[C@H]1CN1CCCC1 [Compound 8] | > 10 µM
O=C(c1cc(NC2CC2)nc2ccccc12)N1CCC[C@H]1CN1CCCC1 [Compound 9] | > 10 µM
O=C(c1cc(Nc2ccc3cn[nH]c3c2)nc2ccccc12)N1CCC[C@H]1CN1CCCC1 [Compound 10] | > 10 µM
Nc1cc(C(=O)N2CCC[C@H]2CN2CCCC2)c2cc(-c3ccc4c(c3)OCO4)ccc2n1 [Compound 11] | 1 to 10 µM
O=C(c1cc(NCc2ccccc2)nc2ccccc12)N1CCC[C@H]1CN1CCCC1 [Compound 14] | > 10 µM
CN(C)C[C@@H]1CCCN1C(=O)c1cc(N(C)C)nc2ccc(-c3ccc4c(c3)OCO4)cc12 [Compound 20] | > 10 µM
O=C(c1cc(NCc2ccccc2)nc2ccc(-c3ccc4c(c3)OCO4)cc12)N1CCC[C@H]1CNCc1ccccc1 [Compound 21] | > 10 µM
O=C(c1cc(NCCN2CCOCC2)nc2ccc(-c3ccc4c(c3)OCO4)cc12)N1CCC[C@H]1CN1CCCC1 [Compound 26] | > 10 µM
O=C(c1cc(NC2CCCC2)nc2ccc(-c3ccc4c(c3)OCO4)cc12)N1CCC[C@H]1CN1CCCC1 [Compound 28] | > 10 µM
O=C(c1cc(NC2Cc3ccccc3C2)nc2ccc(-c3ccc4c(c3)OCO4)cc12)N1CCC[C@H]1CN1CCCC1 [Compound 29] | 1 to 10 µM
O=C(c1cc(NCCN2CCCCC2)nc2ccc(-c3ccc4c(c3)OCO4)cc12)N1CCC[C@H]1CN1CCCC1 [Compound 32] | > 10 µM
O=C(c1cc(NCc2ccccn2)nc2ccc(-c3ccc4c(c3)OCO4)cc12)N1CCC[C@H]1CN1CCCC1 [Compound 33] | 1 to 10 µM
O=C(c1cc(NCc2cccnc2)nc2ccc(-c3ccc4c(c3)OCO4)cc12)N1CCC[C@H]1CN1CCCC1 [Compound 34] | 1 to 10 µM
O=C(c1cc(NCc2ccncc2)nc2ccc(-c3ccc4c(c3)OCO4)cc12)N1CCC[C@H]1CN1CCCC1 [Compound 38] | 1 to 10 µM
O=C(c1cc(NC2CCC2)nc2ccc(-c3ccc4c(c3)OCO4)cc12)N1CCC[C@H]1CN1CCCC1 [Compound 39] | 1 to 10 µM
O=C(c1cc(N[C@@H]2CCc3ccccc32)nc2ccc(-c3ccc4c(c3)OCO4)cc12)N1CCC[C@H]1CN1CCCC1 [Compound 42] | 1 to 10 µM
C[C@@H](O)CNc1cc(C(=O)N2CCC[C@H]2CN2CCCC2)c2cc(-c3ccc4c(c3)OCO4)ccc2n1 [Compound 47] | 1 to 10 µM
O=C(c1cc(N[C@@H]2c3ccccc3C[C@@H]2O)nc2ccc(-c3ccc4c(c3)OCO4)cc12)N1CCC[C@H]1CN1CCCC1 [Compound 48] | 1 to 10 µM
O=C(c1cc(NCCc2c[nH]cn2)nc2ccc(-c3ccc4c(c3)OCO4)cc12)N1CCC[C@H]1CN1CCCC1 [Compound 49] | 1 to 10 µM
CC(=O)N1CCN(c2cc(C(=O)N3CCC[C@H]3CN3CCCC3)c3cc(-c4ccc5c(c4)OCO5)ccc3n2)CC1 [Compound 58] | 1 to 10 µM

Next, values leading:

IC50 | Structure (SMILES)
1 to 10 µM | O=C(c1cc(Cl)nc2ccc(-c3ccc4c(c3)OCO4)cc12)N1CCC[C@H]1CN1CCCC1 [Compound 1]
1 to 10 µM | O=C(c1cc(NC2CC2)nc2ccc(-c3ccc4c(c3)OCO4)cc12)N1CCC[C@H]1CN1CCCC1 [Compound 2]
< 1 µM | O=C(c1cc(NCc2ccccc2)nc2ccc(-c3ccc4c(c3)OCO4)cc12)N1CCC[C@H]1CN1CCCC1 [Compound 4]
1 to 10 µM | O=C(c1cc(N2CCOCC2)nc2ccc(-c3ccc4c(c3)OCO4)cc12)N1CCC[C@H]1CN1CCOCC1 [Compound 5]
< 1 µM | CN(Cc1ccccc1)c1cc(C(=O)N2CCC[C@H]2CN2CCCC2)c2cc(-c3ccc4c(c3)OCO4)ccc2n1 [Compound 12]
< 1 µM | O=C(c1cc(Nc2ccccc2)nc2ccc(-c3ccc4c(c3)OCO4)cc12)N1CCC[C@H]1CN1CCCC1 [Compound 13]
< 1 µM | COc1ccc(Nc2cc(C(=O)N3CCC[C@H]3CN3CCCC3)c3cc(-c4ccc5c(c4)OCO5)ccc3n2)cc1 [Compound 15]
< 1 µM | O=C(c1cc(Nc2ccc(F)cc2)nc2ccc(-c3ccc4c(c3)OCO4)cc12)N1CCC[C@H]1CN1CCCC1 [Compound 16]
< 1 µM | COc1cccc(Nc2cc(C(=O)N3CCC[C@H]3CN3CCCC3)c3cc(-c4ccc5c(c4)OCO5)ccc3n2)c1 [Compound 17]
< 1 µM | O=C(c1cc(Nc2cccc(Br)c2)nc2ccc(-c3ccc4c(c3)OCO4)cc12)N1CCC[C@H]1CN1CCCC1 [Compound 18]
< 1 µM | O=C(c1cc(Nc2ccccn2)nc2ccc(-c3ccc4c(c3)OCO4)cc12)N1CCC[C@H]1CN1CCCC1 [Compound 19]
< 1 µM | O=C(c1cc(Oc2ccccc2)nc2ccc(-c3ccc4c(c3)OCO4)cc12)N1CCC[C@H]1CN1CCCC1 [Compound 22]
< 1 µM | O=C(c1cc(OCc2ccccc2)nc2ccc(-c3ccc4c(c3)OCO4)cc12)N1CCC[C@H]1CN1CCCC1 [Compound 23]
< 1 µM | O=C(c1cc(NC2CCCCC2)nc2ccc(-c3ccc4c(c3)OCO4)cc12)N1CCC[C@H]1CN1CCCC1 [Compound 24]
< 1 µM | O=C(c1cc(Cc2ccccc2)nc2ccc(-c3ccc4c(c3)OCO4)cc12)N1CCC[C@H]1CN1CCCC1 [Compound 25]
< 1 µM | O=C(c1cc(NCC2CCCCC2)nc2ccc(-c3ccc4c(c3)OCO4)cc12)N1CCC[C@H]1CN1CCCC1 [Compound 27]
< 1 µM | O=C(c1cc(NCc2ccc(F)cc2)nc2ccc(-c3ccc4c(c3)OCO4)cc12)N1CCC[C@H]1CN1CCCC1 [Compound 30]
< 1 µM | O=C(c1cc(NCc2cccc(F)c2)nc2ccc(-c3ccc4c(c3)OCO4)cc12)N1CCC[C@H]1CN1CCCC1 [Compound 31]

IC50 | Structure (SMILES)
< 1 µM | O=C(c1cc(NCc2ccc(Cl)cc2)nc2ccc(-c3ccc4c(c3)OCO4)cc12)N1CCC[C@H]1CN1CCCC1 [Compound 35]
< 1 µM | O=C(c1cc(NCc2ccccc2Cl)nc2ccc(-c3ccc4c(c3)OCO4)cc12)N1CCC[C@H]1CN1CCCC1 [Compound 36]
< 1 µM | O=C(c1cc(NCCc2ccccc2)nc2ccc(-c3ccc4c(c3)OCO4)cc12)N1CCC[C@H]1CN1CCCC1 [Compound 37]
< 1 µM | O=C(c1cc(NCc2ccc(F)c(Cl)c2)nc2ccc(-c3ccc4c(c3)OCO4)cc12)N1CCC[C@H]1CN1CCCC1 [Compound 40]
< 1 µM | O=C(c1cc(N[C@H]2CCc3ccccc32)nc2ccc(-c3ccc4c(c3)OCO4)cc12)N1CCC[C@H]1CN1CCCC1 [Compound 41]
< 1 µM | CCC(Nc1cc(C(=O)N2CCC[C@H]2CN2CCCC2)c2cc(-c3ccc4c(c3)OCO4)ccc2n1)c1ccccc1 (stereo partly shown) [Compound 43]
< 1 µM | O=C(c1cc(NCc2ccc(C(F)(F)F)cc2)nc2ccc(-c3ccc4c(c3)OCO4)cc12)N1CCC[C@H]1CN1CCCC1 [Compound 44]
< 1 µM | O=C(c1cc(NCCc2ccc(Cl)cc2Cl)nc2ccc(-c3ccc4c(c3)OCO4)cc12)N1CCC[C@H]1CN1CCCC1 [Compound 45]
< 1 µM | O=C(c1cc(NCc2ccc(F)cc2F)nc2ccc(-c3ccc4c(c3)OCO4)cc12)N1CCC[C@H]1CN1CCCC1 [Compound 46]
< 1 µM | O=C(c1cc(NCc2cccs2)nc2ccc(-c3ccc4c(c3)OCO4)cc12)N1CCC[C@H]1CN1CCCC1 [Compound 50]
< 1 µM | O=C(c1cc(Nc2ccc(Oc3ccccc3)cc2)nc2ccc(-c3ccc4c(c3)OCO4)cc12)N1CCC[C@H]1CN1CCCC1 [Compound 51]
< 1 µM | O=C(c1cc(Nc2ccc(Cl)cc2)nc2ccc(-c3ccc4c(c3)OCO4)cc12)N1CCC[C@H]1CN1CCCC1 [Compound 52]
< 1 µM | O=C(c1cc(Nc2ccc3c(c2)OCO3)nc2ccc(-c3ccc4c(c3)OCO4)cc12)N1CCC[C@H]1CN1CCCC1 [Compound 53]
< 1 µM | CC(CNc1cc(C(=O)N2CCC[C@H]2CN2CCCC2)c2cc(-c3ccc4c(c3)OCO4)ccc2n1)c1ccccc1 (stereo partly shown) [Compound 54]
< 1 µM | O=C(c1cc(NCC(O)c2ccccc2)nc2ccc(-c3ccc4c(c3)OCO4)cc12)N1CCC[C@H]1CN1CCCC1 (stereo partly shown) [Compound 55]
< 1 µM | O=C(c1cc(Nc2ccc3ncsc3c2)nc2ccc(-c3ccc4c(c3)OCO4)cc12)N1CCC[C@H]1CN1CCCC1 [Compound 56]
< 1 µM | O=C(c1cc(Nc2ccc3cn[nH]c3c2)nc2ccc(-c3ccc4c(c3)OCO4)cc12)N1CCC[C@H]1CN1CCCC1 [Compound 57]
